According to patent publication US20190015423A1, “REGULATION OF GENE EXPRESSION BY MODULATING PRIMARY CILIA LENGTH” (THE TRUSTEES OF COLUMBIA UNIVERSITY IN THE CITY OF NEW YORK, priority 2016, published 2019):
Structures can show the parent of a compound that is named as a salt.

system: MLO-Y4 osteocytes; assay: High-throughput drug screening of primary cilia length and incidence; assay type: cell-based; conditions: 10 μM, 16 hours, triplicate; normalized to vehicle control; standard deviation away from the population average
Experimental: MLO-Y4 osteocytes were maintained on collagen I-coated dishes in MEMα (Life_Technologies) supplemented with 5% fetal bovine serum (FBS), 5% calf serum (CS), and 1% penicillin/streptomycin (P/S) at 37° C. and 5% CO2. Osteocytes were then seeded onto 384-well collagen-coated plates for 72 hours before fixation. […] These libraries include Tocris, Sigma LOPAC, Selleck Chemical, Prestwick, and Spectrum commercially available compound libraries. All cell seeding and plate handling was performed with the Perkin Elmer cell:explorer workstation.
Cells were fixed in 4% paraformaldehyde and permeabilized with 0.1% Triton-X 100 (Sigma). 10% goat serum (vendor) was used for blocking. Cilia were stained using a monoclonal antibody against acetylated α-tubulin (1:20) from a C3B9 hybridoma cell line, and visualized with A F488 (1:1000, ThermoFisher). Nuclei were visualized with Hoechst. Cells were imaged using a GE INCell 2000 high-throughput imager at 40× magnification. 4 fields of view were taken per well.
Each pair of nuclei and cilia images was first analyzed individually, then the entire population was examined to evaluate each compound's effect on cilia length and incidence. A custom MATLAB script was developed to perform all image analysis. This script first utilizes an enhanced implementation of a watershed transform, which is a segmentation tool which enables detection of similarly shaped overlapping particles in noisy images by the procedural whittling down of pixels found close to the edge of such particles. The augmentation of the algorithm incorporates thresholding for noise removal based on signal intensity and object size, nuclei dilation to exclude non-cellular artifacts, as well as skeletonization of cilia to quantify length. The results of the analysis are number of nuclei, number of cilia, and average cilia length in each image.
Compounds were selected based on deviation from the population mean. Each well was normalized to vehicle control images on each plate, allowing the establishment of a normalized population mean. Hits were chosen based on compounds whose triplicate mean was furthest (based on standard deviation away) from the population mean. […] Compounds were classified based on mechanism of action.
To identify compounds that modulate primary cilia formation a high-throughput platform was developed to automate cell culture, staining, imaging, and analysis, as shown in schematic form in FIG. 18. […] Cells were cultured on 384-well plates, and treated with small molecules with known biologic activity, enabling classification of mechanisms of action. Drug treatment was applied for 16 hours at 10 μM concentration, performed in triplicate, before fixation and immunostaining of primary cilia. Cells were then imaged using the GE INCell 2000 High Content Analyzer, capturing 4 fields of view per well at 40× magnification. Additionally, each plate contains 8 wells of DMSO vehicle control.
A MATLAB script was developed to detect and analyze changes in ciliogenesis. […] A representative exemplary image (FIG. 19A) is cropped to better display features, scale bar represents 30 μm. A custom MATLAB script was used to identify nuclei and cilia for analysis (FIG. 19B). […] Objects are further filtered based on size and signal intensity.
Cilia length and incidence for each field of view were normalized to vehicle control on that individual plate. This allowed development of a normalized population average and standard deviation. […] To control for toxic effects only small molecules with at least 40% viability, based on number of nuclei versus control, were selected as hits. Furthermore, compounds repeated between multiple libraries eliciting the same effect on cilia length or incidence were excluded, such that only one of the repeated compounds was selected as a hit.

| Compound | Average Incidence SD Away [SD] | Average Length SD Away [SD] |
| --- | --- | --- |
| COc1c(C)c2c(c(O)c1C/C=C(\C)CCC(=O)OCCN1CCOCC1)C(=O)OC2 [Mycophenolate mofetil (CellCept), Mycophenolate mofetil] | 1.654 | 1.579 |
| CC(C)(C)[N+]([O-])=Cc1ccc(S(=O)(=O)[O-])cc1S(=O)(=O)[O-].[Na+].[Na+] [NXY 059] | 1.838 | – |
| Cc1cccc(C)c1NC(=O)CN1CCCC1=O [Nefiracetam (Translon), Nefiracetam] | 1.552 | – |
| O=C(NCCO[N+](=O)[O-])c1cccnc1 [Nicorandil (Ikorel), Nicorandil] | 1.556 | – |
| CCOC(=O)C1=C(C)NC(C)=C(C(=O)OC)C1c1cccc([N+](=O)[O-])c1 (stereo not drawn) [Nitrendipine] | 1.542 | – |
| Cc1cc2c(s1)Nc1ccccc1N=C2N1CCN(C)CC1 [Olanzapine (Zyprexa), Olanzapine] | 1.609 | – |
| Cc1nccn1CC1CCc2c(c3ccccc3n2C)C1=O (stereo not drawn) [Ondansetron (Zofran), Ondansetron] | 1.506 | – |
| COC(=O)Nc1nc2ccc([S+]([O-])c3ccccc3)cc2[nH]1 (stereo not drawn) [Oxfendazole] | 2.268 | 1.574 |
| CCCOc1ccc2nc(NC(=O)OC)[nH]c2c1 [Oxibendazole] | 4.084 | – |
| O=C(O)/C=C/c1ccc(Cn2ccnc2)cc1 [Ozagrel HCl] | 1.683 | – |
| N=C1C=CC(=C(c2ccc(N)cc2)c2ccc(N)cc2)C=C1 [PARAROSANILINE PAMOATE] | – | 2.389 |
| C=C(C)[C@H]1CC=C(C(=O)O)CC1 [PERILLIC ACID (−)] | – | 2.196 |
| Cl.O=C1NCCc2[nH]c(-c3ccncc3)cc21 [PHA 767491 hydrochloride] | – | 1.724 |
| Nc1nccc(-c2ccc3noc(-c4ccc(Cl)cc4)c3c2)n1 [PIM 1 Inhibitor 2] | – | 3.223 |
| CCc1nc(N)nc(N)c1-c1ccc(Cl)cc1 [PYRIMETHAMINE] | 1.762 | 3.194 |
| Cc1cc(/C=C/c2ccc3cc(N(C)C)ccc3[n+]2C)c(C)n1-c1ccccc1 [PYRVINIUM PAMOATE] | – | 2.834 |
| CCn1cc(C(=O)O)c(=O)c2cc(F)c(N3CCN(C)CC3)cc21 [Pefloxacin mesylate] | 1.682 | – |
| Nc1nc2[nH]cc(CCc3ccc(C(=O)N[C@@H](CCC(=O)O)C(=O)O)cc3)c2c(=O)[nH]1 [Pemetrexed] | 2.083 | 2.765 |
| O=C1c2ccccc2C(=O)C1c1ccccc1 [Phenindione (Rectadione), Phenindione] | 1.688 | – |
| CCc1ccc(CCOc2ccc(CC3SC(=O)NC3=O)cc2)nc1 (stereo not drawn) [Pioglitazone hydrochloride (Actos), Pioglitazone hydrochloride] | 2.52 | – |
| COc1cc(/C=C/C(=O)N2CCC=CC2=O)cc(OC)c1OC [Piperlongumine] | – | 3.198 |
| C#CCC(Cc1cnc2nc(N)nc(N)c2n1)c1ccc(C(=O)N[C@@H](CCC(=O)O)C(=O)O)cc1 (stereo partly drawn) [Pralatrexate(Folotyn), Pralatrexate] | 2.193 | 2.105 |
| CCCOc1ccc(C(=O)OCCN(CC)CC)cc1N [Proparacaine HCl] | 1.523 | – |
| CCCc1cc(=O)[nH]c(=S)[nH]1 [Propylthiouracil] | 1.659 | – |
| C=C[C@H]1C[N@@]2CC[C@H]1C[C@@H]2[C@@H](O)c1ccnc2ccc(OC)cc12 [QUINIDINE GLUCONATE] | – | 1.825 |
| C=C[C@H]1C[N@@]2CC[C@H]1C[C@H]2[C@H](O)c1ccnc2ccc(OC)cc12 [QUININE SULFATE] | – | 1.802 |
| COC(=O)[C@H]1[C@H]2C[C@@H]3c4[nH]c5cc(OC)ccc5c4CCN3C[C@H]2C[C@@H](OC(=O)c2cc(OC)c(OC)c(OC)c2)[C@@H]1OC [RESERPINE] | – | 1.972 |

| Compound | Average Incidence SD Away [SD] | Average Length SD Away [SD] |
| --- | --- | --- |
| COc1ccccc1OCC(O)CN1CCN(CC(=O)Nc2c(C)cccc2C)CC1 (stereo not drawn) [Ranolazine (Ranexa), Ranolazine] | 1.565 | – |
| CC1=C(/C=C/C(C)=C/C=C/C(C)=C/C(=O)Nc2ccc(O)cc2)C(C)(C)CCC1 [Retinoic acid p-hydroxyanilide] | – | 2.487 |
| CCN(C)C(=O)Oc1cccc([C@H](C)N(C)C)c1 [Rivastigmine tartrate (Exelon), Rivastigmine tartrate] | 1.664 | – |
| CC(C)c1nc(N(C)S(C)(=O)=O)nc(-c2ccc(F)cc2)c1/C=C/[C@@H](O)C[C@@H](O)CC(=O)O [Rosuvastatin calcium (Crestor), Rosuvastatin calcium] | 1.644 | – |
| COc1ccc2cccc(N3CCN(CCNC(=O)c4ccc(F)cc4)CC3)c2c1.Cl [S 14506 hydrochloride] | – | 1.54 |
| Cc1nn(-c2ccccc2)c(C)c1/C=N/N1CCN(Cc2ccccc2)CC1 [SANT-1] | – | 1.811 |
| C[S+]([O-])c1ccc(-c2nc(-c3ccc(F)cc3)c(-c3ccncc3)[nH]2)cc1 (stereo not drawn) [SB 203580] | – | 1.797 |
| Cn1ccc2cc3c(cc21)CCN3C(=O)Nc1cccnc1 [SB 206553 hydrochloride] | – | 1.704 |
| COc1cc2c(cc1C(F)(F)F)N(C(=O)Nc1cc(F)cc(-c3cccnc3)c1)CC2 [SB 228357] | – | 2.332 |
| COc1nccc(-c2c(-c3ccc(F)cc3)ncn2C2CCC(O)CC2)n1 (stereo not drawn) [SB 239063] | 1.795 | 4 |
| Cc1cc(NC(=O)Nc2ccc(N(C)C)cc2)c2cc(F)cc(F)c2n1 [SB 408124] | – | 2.398 |
| O=C1NC(=O)C(c2ccccc2[N+](=O)[O-])=C1Nc1ccc(O)c(Cl)c1 [SB 415286] | – | 2.05 |
| O=C1C=C2C=C[C@@H]3C[C@@]2(O1)[C@H]1CCCCN31 [SECURININE] | – | 1.502 |
| Br.C=CCN1CCc2cc(O)c(O)cc2C(c2ccccc2)C1 (stereo not drawn) [SKF 77434 hydrobromide] | – | 1.527 |
| Fc1ccc(-c2nc3n(c2-c2ccncc2)CCS3)cc1 [SKF 86002 dihydrochloride] | – | 1.549 |
| CCCC(=O)[O-].[Na+] [Sodium butyrate] | 2.3981 | – |
| CNC(=O)c1cc(Oc2ccc(NC(=O)Nc3ccc(Cl)c(C(F)(F)F)c3)cc2)ccn1 [Sorafenib (Nexavar), Sorafenib] | 1.678 | 1.5 |
| Cc1cc(NS(=O)(=O)c2ccc(N)cc2)no1 [Sulfamethoxazole] | 1.767 | – |
| Nc1nc2nc[nH]c2c(=S)[nH]1 [THIOGUANINE] | – | 1.675 |
| CC(C)(C)NCC(O)c1ccccc1Cl (stereo not drawn) [TULOBUTEROL] | – | 2.06 |
| CCOC(=O)[C@H](CCc1ccccc1)N[C@H]1CS[C@H](c2cccs2)CN(CC(=O)O)C1=O [Temocapril HCl] | 1.877 | – |
| C[N+]1(C)[C@@H]2C[C@@H](OC(=O)C(O)(c3cccs3)c3cccs3)C[C@H]1[C@@H]1O[C@@H]12 [Tiotropium Bromide hydrate] | 1.593 | – |
| Cc1cccc(N(C)C(=S)Oc2ccc3ccccc3c2)c1 [Tolnaftate] | 1.5099 | – |
| CC[C@@]1(O)C(=O)OCc2c1cc1n(c2=O)Cc2cc3c(CN(C)C)c(O)ccc3nc2-1 [Topotecan hydrochloride hydrate] | 2.75 | 3.899 |
| NC[C@H]1CC[C@H](C(=O)O)CC1 [Tranexamic acid (Transamin), Tranexamic acid] | 1.582 | – |
| Nc1nc(N)c2nc(-c3ccccc3)c(N)nc2n1 [Triamterene] | – | 2.775 |
| O=c1[nH]c(=O)n([C@H]2C[C@H](O)[C@@H](CO)O2)cc1C(F)(F)F [Trifluridine (Viroptic), Trifluridine] | 2.117 | 1.773 |
